US7135466B2 (Kirin Beer Kabushiki Kaisha, priority 1999, dated 2006)
Like-named read-outs stand apart in the source and are kept apart here.

Columns and labels:
human KDR = target: T1, human KDR (Homo sapiens, UniProt P35968); experiment: Inhibitory activity against KDR phosphorylation (NIH 3T3 cells transfected with human KDR, VEGF); assay type: cell-based; conditions: VEGF 100 ng/ml
T1 construct: expressed in transfected cells; host or cells: NIH 3T3 cells
Method: Measurement of Inhibitory Activity Against KDR Phosphorylation
NIH 3T3 cells (Sawano A et al., Cell Growth & Differentiation, 7, 213–221 (1996)) prepared by transfection of human KDR were cultured in a DMEM medium containing 10% FBS (GIBCO BRL) within a 5% carbon dioxide incubator until 50 to 70% confluent. The harvested cells were inoculated into wells of a collagen-type one-coat 96-well flat-bottom plate, each containing the same medium, in an amount of 1.5×10^4 per well, followed by cultivation at 37° C. overnight. The medium was then replaced by a DMEM medium containing 0.1% FBS. A solution of a test compound in dimethyl sulfoxide was added to each well, and the cultivation was carried out at 37° C. for additional one hr. A human recombinant vascular endothelial growth factor (hereinafter abbreviated to “VEGF”) was added to a concentration of 100 ng/ml, and the stimulation of cells was carried out at 37° C. for 2 min. The medium was removed, the cells were washed with phosphate buffered saline (pH 7.4), and 50 μl of a solubilization buffer (20 mM HEPES (pH 7.4), 150 mM NaCl, 0.2% Triton X-100, 10% glycerol, 5 mM sodium orthovanadylate, 5 mM disodium ethylenediaminetetraacetate, and 2 mM Na4P2O7) was then added thereto. The mixture was shaken at 4° C. for 2 hr to prepare a cell extract.
An anti-phospho-tyrosine antibody (PY20; Transduction Laboratories) was immobilized on a microplate for ELISA (Maxisorp; NUNC), and the whole quantity of the cell extract was transferred to the wells, and the immobilized antibody was reacted with the phosphorylated protein at 4° C. overnight. After washing, an anti-KDR antibody (Santa Cruz) was allowed to react at room temperature for one hr, and, further, after washing, a peroxidase-labeled anti-rabbit Ig antibody (Amersham) was allowed to react at room temperature for one hr. After washing, a chromophoric substrate for peroxidase (Sumitomo Bakelite Co., Ltd.) was added thereto and was allowed to react at room temperature. After a suitable level of color development, a reaction termination solution was added to stop the reaction, and the absorbance at 450 nm was measured with a microplate reader. The KDR phosphorylation activity for each well was determined by presuming the absorbance with the addition of VEGF and without the addition of the medicament to be 100% KDR phosphorylation activity and the absorbance without the medicament and VEGF to be 0% KDR phosphorylation activity.
The concentration of the test compound was varied on several levels, the inhibition (%) of KDR phosphorylation was determined for each case, and the concentration of the test compound necessary for inhibiting 50% of KDR phosphorylation (IC50) was calculated.

PDGF-Ra = target: T2, PDGF-Ra (Homo sapiens, UniProt P16234); experiment: Inhibitory activity against PDGF-Ra phosphorylation by PDGF-AA stimulation using G292; assay type: cell-based; conditions: > means inhibition at indicated concentration not more than 50%, < and << not less than 50%; read-out: PDGF (E) IC50
T2 construct: host or cells: G-292 human osteosarcoma cells
Procedure, shortened: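 G-292 human osteosarcoma cells, serum-starved overnight in 0.1% FBS, were pretreated with compound in DMSO for 1 hr at 37 °C, then stimulated with 50 ng/ml PDGF-AA for 5 min. Lysates were captured on anti-phosphotyrosine PY-20 plates and probed with anti-PDGF-Ra plus HRP secondary; absorbance read at 450 nm.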

[1] = system: neointima of balloon-injured left carotid artery; experiment: Rat carotid balloon injury model; assay type: in vivo; conditions: po, 336 h, read-out: I/M ratio, inhibition (%)
Method: Rat Carotid Balloon Injury Model
Wistar male rats ([…]) were anesthetized with pentobarbital anesthesia, the right femoral region was incised from the rats, a Fogaty 2F catheter was inserted through the right femoral artery and was led to the left carotid artery, and abrasion was made three times with an expansion diameter of 2.5 mm.
The test compound was suspended in 1% cremophore, and the suspension was orally administered at 0.4 ml/100 g B.W. twice a day through an oral probe for rats for 2 weeks from the day before an operation. On the second week after the operation, the rats were sacrificed by ether. The left carotid artery was removed and was fixed in buffered formalin. Sliced preparations embedded in paraffin were stained with HE and were subjected to image analysis for the measurement of the neointima area (I) and media area (M) in the section of injured blood vessal. I/M was calculated as an index for the evaluation of drug efficacy.

c-kit = target: T3, c-kit (Homo sapiens, UniProt P10721); experiment: Inhibitory activity against c-kit autophosphorylation (MO7e cells, h-SCF); assay type: cell-based; conditions: for IC50: MO7e cells, read-out: c-kit IC50; for inhibition at 1 µM: Mo7e
T3 construct: MO7e (human megakaryocytic leukemia cell line) which had been arrested for 20 hr; endogenous in cells; host or cells: MO7e human megakaryocytic leukemia cell line
Procedure, shortened: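 Growth-arrested (20 hr) MO7e; cpd in DMSO, 1 hr; h-SCF 50 ng/ml, 5 min; lyse. ELISA: anti-pTyr (PY-20) capture, anti-c-kit 1° Ab, HRP anti-rabbit 2° Ab, A450.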

PDGF-R = PDGF-R (Rattus norvegicus, UniProt Q05030); experiment: PDGF-R autophosphorylation inhibition screening (dot plotting), vascular smooth muscle cells, PDGF-BB; assay type: cell-based; conditions: for inhibition at 1 µM: figure in parentheses in −( ), at 1000 nM, read-out: PDGF (D) inhibition (%) at 1000 nM; for IC50: PDGF (D) column
Method: PDGF-R Autophosphorylation Inhibition Screening (Dot Plotting)
Vascular smooth muscle cells (passage 5 to 10) collected from rat thoracic aorta by the explant method were planted at 8×10^3 cells per well in 96-well plates, subject to a serum starvation state, and 24 hr after the plantation then assayed.
A test compund was added, and the mixture was incubated at 37° C. for one hr. Thereafter, PDGF-BB was added to 50 ng/ml, and the mixture was incubated for 5 min, followed by washing with cold PBS. Lysate buffer (20 μl/well) was then added, SDS buffer ([…]) was added thereto, and 2 μl of the mixture was then spotted on a PDVF membrane.
Treatment was carried out with anti-mouse IgG which had been labelled with peroxidase after treatment with an anti-phosphotyrosine antibody, followed by development in an ECL color development kit (Amersham). Thereafter, the color intensity was quantitatively determined by image analysis.

[2] = figure in parentheses in −( ), at 1000 nM

T3 sequence (P10721 26-976): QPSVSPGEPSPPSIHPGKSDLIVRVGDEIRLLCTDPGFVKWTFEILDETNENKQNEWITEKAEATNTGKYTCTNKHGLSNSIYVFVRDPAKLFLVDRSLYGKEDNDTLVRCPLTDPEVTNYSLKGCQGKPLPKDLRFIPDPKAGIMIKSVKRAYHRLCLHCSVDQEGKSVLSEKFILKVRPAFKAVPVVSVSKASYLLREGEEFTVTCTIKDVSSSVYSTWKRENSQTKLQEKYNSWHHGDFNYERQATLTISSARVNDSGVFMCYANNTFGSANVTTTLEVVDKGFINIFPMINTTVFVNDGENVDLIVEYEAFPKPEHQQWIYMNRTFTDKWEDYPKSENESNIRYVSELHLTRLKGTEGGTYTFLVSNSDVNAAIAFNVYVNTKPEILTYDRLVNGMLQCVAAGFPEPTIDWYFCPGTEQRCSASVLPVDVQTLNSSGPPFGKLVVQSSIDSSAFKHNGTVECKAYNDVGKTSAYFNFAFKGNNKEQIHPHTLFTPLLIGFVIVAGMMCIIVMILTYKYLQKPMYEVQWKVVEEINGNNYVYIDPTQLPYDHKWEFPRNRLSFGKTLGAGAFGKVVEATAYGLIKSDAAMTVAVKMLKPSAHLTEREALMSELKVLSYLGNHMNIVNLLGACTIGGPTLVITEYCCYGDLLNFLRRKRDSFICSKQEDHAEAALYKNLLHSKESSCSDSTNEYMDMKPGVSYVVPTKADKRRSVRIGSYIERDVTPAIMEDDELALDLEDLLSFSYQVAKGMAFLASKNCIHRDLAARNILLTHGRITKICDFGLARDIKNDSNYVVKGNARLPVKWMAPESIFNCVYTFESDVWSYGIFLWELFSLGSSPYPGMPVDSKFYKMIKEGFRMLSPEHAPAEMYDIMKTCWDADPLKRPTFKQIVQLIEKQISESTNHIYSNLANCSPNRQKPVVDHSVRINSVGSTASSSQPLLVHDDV
Chain of PDGF-R (Q05030 32-1097): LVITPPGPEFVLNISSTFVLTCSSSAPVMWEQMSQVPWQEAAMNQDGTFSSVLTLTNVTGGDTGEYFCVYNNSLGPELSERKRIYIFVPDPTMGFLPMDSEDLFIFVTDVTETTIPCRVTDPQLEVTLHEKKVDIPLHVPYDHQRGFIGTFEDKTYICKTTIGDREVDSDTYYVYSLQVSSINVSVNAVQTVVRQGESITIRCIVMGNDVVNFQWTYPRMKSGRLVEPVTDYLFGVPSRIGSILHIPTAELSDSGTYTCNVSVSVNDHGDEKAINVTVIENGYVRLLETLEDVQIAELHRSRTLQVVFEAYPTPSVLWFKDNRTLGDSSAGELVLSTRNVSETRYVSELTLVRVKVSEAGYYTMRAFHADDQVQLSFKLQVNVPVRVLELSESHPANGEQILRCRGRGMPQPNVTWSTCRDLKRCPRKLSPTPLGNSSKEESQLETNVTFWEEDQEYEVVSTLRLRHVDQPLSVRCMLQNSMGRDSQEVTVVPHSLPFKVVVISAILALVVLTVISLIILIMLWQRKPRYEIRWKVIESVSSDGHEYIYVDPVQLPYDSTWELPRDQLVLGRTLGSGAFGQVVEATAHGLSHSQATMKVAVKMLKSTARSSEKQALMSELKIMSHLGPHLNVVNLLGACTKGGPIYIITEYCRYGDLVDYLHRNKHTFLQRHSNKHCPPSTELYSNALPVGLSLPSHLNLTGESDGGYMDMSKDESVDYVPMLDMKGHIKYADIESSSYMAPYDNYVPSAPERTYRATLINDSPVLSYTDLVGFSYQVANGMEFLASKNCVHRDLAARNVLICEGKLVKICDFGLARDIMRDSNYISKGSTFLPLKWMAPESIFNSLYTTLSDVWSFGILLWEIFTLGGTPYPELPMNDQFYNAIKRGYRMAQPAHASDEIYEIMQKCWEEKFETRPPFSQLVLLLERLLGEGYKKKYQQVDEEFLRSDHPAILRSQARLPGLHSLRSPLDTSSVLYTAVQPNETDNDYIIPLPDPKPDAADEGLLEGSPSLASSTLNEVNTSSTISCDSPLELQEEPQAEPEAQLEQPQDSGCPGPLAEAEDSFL
T1 sequence (P35968 20-1356): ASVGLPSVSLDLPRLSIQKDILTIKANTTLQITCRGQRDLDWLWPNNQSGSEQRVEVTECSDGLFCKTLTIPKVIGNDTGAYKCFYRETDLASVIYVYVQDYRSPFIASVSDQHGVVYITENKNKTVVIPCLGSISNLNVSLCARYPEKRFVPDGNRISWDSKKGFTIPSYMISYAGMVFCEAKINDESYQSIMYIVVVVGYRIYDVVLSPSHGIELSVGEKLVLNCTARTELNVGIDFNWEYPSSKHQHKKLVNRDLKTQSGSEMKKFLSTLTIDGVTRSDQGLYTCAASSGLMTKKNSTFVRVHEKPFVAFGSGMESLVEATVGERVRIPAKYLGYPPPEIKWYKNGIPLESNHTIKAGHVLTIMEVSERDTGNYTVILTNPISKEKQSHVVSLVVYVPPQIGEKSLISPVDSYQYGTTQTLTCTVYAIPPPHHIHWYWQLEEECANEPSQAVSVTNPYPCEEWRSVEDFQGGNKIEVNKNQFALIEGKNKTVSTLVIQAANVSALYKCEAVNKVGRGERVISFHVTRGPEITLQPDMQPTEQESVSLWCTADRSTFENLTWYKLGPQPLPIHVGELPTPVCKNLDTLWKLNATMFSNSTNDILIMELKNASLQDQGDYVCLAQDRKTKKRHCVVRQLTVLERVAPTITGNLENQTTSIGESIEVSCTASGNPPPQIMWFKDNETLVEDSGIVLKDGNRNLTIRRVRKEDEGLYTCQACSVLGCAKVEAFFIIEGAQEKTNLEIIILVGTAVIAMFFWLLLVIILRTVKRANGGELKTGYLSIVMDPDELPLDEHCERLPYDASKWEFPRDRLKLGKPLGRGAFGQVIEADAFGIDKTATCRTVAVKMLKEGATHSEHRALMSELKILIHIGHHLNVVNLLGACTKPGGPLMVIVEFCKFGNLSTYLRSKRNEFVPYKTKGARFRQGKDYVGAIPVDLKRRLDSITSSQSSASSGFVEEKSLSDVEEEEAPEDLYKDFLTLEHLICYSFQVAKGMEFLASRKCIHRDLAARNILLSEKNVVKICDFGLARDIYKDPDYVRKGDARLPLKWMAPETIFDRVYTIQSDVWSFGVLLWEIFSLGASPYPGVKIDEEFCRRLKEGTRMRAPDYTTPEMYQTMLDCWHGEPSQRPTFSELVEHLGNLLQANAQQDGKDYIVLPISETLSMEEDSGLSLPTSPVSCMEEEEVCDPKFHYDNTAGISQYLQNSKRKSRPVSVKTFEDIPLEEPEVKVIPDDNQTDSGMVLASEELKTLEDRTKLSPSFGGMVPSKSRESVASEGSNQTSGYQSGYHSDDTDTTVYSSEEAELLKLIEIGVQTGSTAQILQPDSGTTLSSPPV
T2 sequence (P16234 24-1089): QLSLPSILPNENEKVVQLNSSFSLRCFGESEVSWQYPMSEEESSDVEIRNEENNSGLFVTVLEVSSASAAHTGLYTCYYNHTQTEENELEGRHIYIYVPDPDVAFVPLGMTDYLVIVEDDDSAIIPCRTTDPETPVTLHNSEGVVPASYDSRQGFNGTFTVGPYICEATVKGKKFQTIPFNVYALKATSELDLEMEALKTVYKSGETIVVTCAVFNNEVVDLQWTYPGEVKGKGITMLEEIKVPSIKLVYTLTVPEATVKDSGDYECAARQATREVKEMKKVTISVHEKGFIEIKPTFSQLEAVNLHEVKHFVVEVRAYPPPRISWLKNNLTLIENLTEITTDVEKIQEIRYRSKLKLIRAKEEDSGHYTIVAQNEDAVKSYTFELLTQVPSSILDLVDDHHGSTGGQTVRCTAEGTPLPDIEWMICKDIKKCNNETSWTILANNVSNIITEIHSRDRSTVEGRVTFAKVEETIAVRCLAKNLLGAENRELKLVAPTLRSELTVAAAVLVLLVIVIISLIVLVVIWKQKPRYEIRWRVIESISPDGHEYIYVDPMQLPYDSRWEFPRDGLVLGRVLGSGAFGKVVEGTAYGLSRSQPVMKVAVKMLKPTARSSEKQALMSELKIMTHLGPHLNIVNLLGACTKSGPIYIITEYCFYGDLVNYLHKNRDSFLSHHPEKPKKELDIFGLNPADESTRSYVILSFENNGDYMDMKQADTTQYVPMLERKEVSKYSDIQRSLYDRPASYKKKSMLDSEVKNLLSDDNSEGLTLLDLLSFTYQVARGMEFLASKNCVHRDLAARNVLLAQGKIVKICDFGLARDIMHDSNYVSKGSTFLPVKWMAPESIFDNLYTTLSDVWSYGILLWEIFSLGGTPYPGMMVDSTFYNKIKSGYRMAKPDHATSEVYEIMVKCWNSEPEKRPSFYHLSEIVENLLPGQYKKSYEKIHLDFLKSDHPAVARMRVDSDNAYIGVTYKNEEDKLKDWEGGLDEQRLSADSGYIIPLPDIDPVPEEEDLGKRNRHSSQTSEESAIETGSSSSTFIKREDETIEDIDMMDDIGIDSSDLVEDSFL

| Compound | inhibition at 1 µM (PDGF-R) | inhibition at 1 µM (c-kit; [2]) | other results |
| --- | --- | --- | --- |
| COc1cc2nccc(Oc3ccc(NC(=O)NC4CCN(Cc5ccccc5)CC4)cc3)c2cc1OC [Example 590, N-{4-[(6,7-Dimethoxy-4-quinolyl)oxy]phenyl}-N′-[4-(N-benzyl)piperidinyl]urea] |  |  | IC50 (human KDR): > 1000 nM; IC50 (PDGF-Ra): 54 nM; inhibition in vivo at 30 mg/kg ([1]; in vivo, dose: 30 mg/kg, orally twice a day for 2 weeks, Wistar male rats): 86%; IC50 (c-kit; 50 ng/ml h-SCF): 296 nM |
| CCCCCCCCCCCC(=O)NC(=S)Nc1ccc(Oc2ccnc3cc(OC)c(OC)cc23)cc1 [Example 1072, N-{4-[(6,7-Dimethoxy-4-quinolyl)oxy]phenyl}-N′-dodecanoylthiourea] | 34% | 18% |  |
| COc1cc2nccc(Oc3ccc(S(=O)(=O)CCOc4ccccc4F)cc3)c2cc1OC [Example 837, 4-[(6,7-Dimethoxy-4-quinolyl)oxy]phenyl [2-(2-fluorophenoxy)ethyl]sulfone] | 10% | 19% |  |
| COc1ccc(C(=O)NC(=S)Nc2ccc(Oc3ccnc4cc(OC)c(OC)cc34)cc2C)cc1 [Example 1095, N-{4-[(6,7-Dimethoxy-4-quinolyl)oxy]-2-methylphenyl}-N′-(4-methoxybenzoyl)thiourea] | 20% | 25% |  |
| COc1cc2nccc(Oc3ccc(S(=O)(=O)CCOc4ccc(Cl)cc4Cl)cc3)c2cc1OC [Example 831, 2-(2,4-Dichlorophenoxy)ethyl{4-[(6,7-dimethoxy-4-quinolyl)oxy]phenyl}sulfone] | 50% | 19% |  |
| CCCCCCCCCCCC(=O)NC(=S)Nc1ccc(Oc2ccnc3cc(OC)c(OC)cc23)cc1F [Example 1075, N-{4-[(6,7-Dimethoxy-4-quinolyl)oxy]-2-fluorophenyl}-N′-dodecanoylthiourea] | 17% | 31% |  |
| COc1cc2nccc(Oc3ccc([S+]([O-])CCOc4ccc(F)cc4[N+](=O)[O-])cc3)c2cc1OC (stereo not shown) [Example 839, {4-[(6,7-Dimethoxy-4-quinolyl)oxy]phenyl}[2-(4-fluoro-2-nitrophenoxy)ethyl] sulfoxide] | 24% | 30% |  |
| COc1ccc(C(=O)NC(=S)Nc2ccc(Oc3ccnc4cc(OC)c(OC)cc34)cc2F)c(OC)c1 [Example 1123, N-(2,4-Dimethoxybenzoyl)-N′-{4-[(6,7-dimethoxy-4-quinolyl)oxy]-2-fluorophenyl}thiourea] | 43% |  | IC50 (c-kit; h-SCF stimulation): 961 nM |
| {4-[(6,7-Dimethoxy-4-quinolyl)oxy]phenyl}[2-(3-methoxy-4-nitrophenoxy)ethyl] sulfoxide [Example 838] |  |  | IC50 (PDGF-R; > means inhibition at indicated concentration not more than 50%, < not less than 50%): 590 nM; c-kit inhibition (%) at 1000 nM (c-kit; [2]): −(23) % |
| COc1cc2nccc(Oc3ccc(NC(=S)NC(=O)c4ccc(Cl)cc4Cl)c(C)c3C)c2cc1OC [Example 1086, N-(2,4-Dichlorobenzoyl)-N′-{4-[(6,7-dimethoxy-4-quinolyl)oxy]-2,3-dimethylphenyl}thiourea] | 48% | 19% |  |
| COc1cc2nccc(Oc3ccc(NC(=S)NC(=O)c4ccc(C)cc4)c(C)c3)c2cc1OC [Example 1096, N-{4-[(6,7-Dimethoxy-4-quinolyl)oxy]-2-methylphenyl}-N′-(4-methylbenzoyl)thiourea] | 30% | 3% |  |
| CCCCCCCCCCCCCC(=O)NC(=S)Nc1ccc(Oc2ccnc3cc(OC)c(OC)cc23)cc1 [Example 1073, N-{4-[(6,7-Dimethoxy-4-quinolyl)oxy]phenyl}-N′-tetradecanoylthiourea] | 23% | 20% |  |
| COc1cc2nccc(Oc3ccc(NC(=O)Oc4ccccc4C)cc3)c2cc1OC [Example 223, 2-Methylphenyl N-{4-[(6,7-dimethoxy-4-quinolyl)oxy]phenyl}carbamate] |  |  | IC50 (human KDR): 38 nM; inhibition in vivo at 30 mg/kg [1]: 41%; IC50 (c-kit; h-SCF 50 ng/ml): 101 nM |
| COc1cc2nccc(Oc3ccc(NC(=S)NC(=O)c4ccc([N+](=O)[O-])cc4)c(C)c3C)c2cc1OC [Example 1081, N-{4-[(6,7-Dimethoxy-4-quinolyl)oxy]-2,3-dimethylphenyl}-N′-(4-nitrobenzoyl)thiourea] | 50% | 47% |  |
| COc1cc2nccc(Oc3ccc(S(=O)(=O)CCOc4ccc(C)cc4)cc3)c2cc1OC [Example 834, 4-[(6,7-Dimethoxy-4-quinolyl)oxy]phenyl [2-(4-methylphenoxy)ethyl]sulfone] | 23% | 1% |  |
| COc1cc2nccc(Oc3ccc(S(=O)(=O)CCOc4ccc(F)cc4)cc3)c2cc1OC [Example 829, 4-[(6,7-Dimethoxy-4-quinolyl)oxy]phenyl [2-(4-fluorophenoxy)ethyl]sulfone] | 30% | 10% |  |
| COc1cccc(OCCS(=O)(=O)c2ccc(Oc3ccnc4cc(OC)c(OC)cc34)cc2)c1 [Example 830, 4-[(6,7-Dimethoxy-4-quinolyl)oxy]phenyl [2-(3-methoxyphenoxy)ethyl]sulfone] | 23% | 10% |  |
| COc1cc2nccc(Oc3ccc(S(=O)(=O)CCOc4cccc(Cl)c4)cc3)c2cc1OC [Example 832, 2-(3-Chlorophenoxy)ethyl{4-[(6.7-dimethoxy-4-quinolyl)oxy]phenyl}sulfone] | 35% | 21% |  |
| N-{4-[(6,7-Dimethoxy-4-quinolyl)oxy]-2-fluorophenyl}-N′-(methylamino)urea [Example 611] |  |  | IC50 (PDGF-R): 95 nM; IC50 (c-kit; 50 ng/ml h-SCF): 1070 nM |
| COc1cc2nccc(Oc3ccc(NC(=S)NC(=O)c4ccc([N+](=O)[O-])cc4)c(C)c3)c2cc1OC [Example 1092, N-{4-[(6,7-Dimethoxy-4-quinolyl)oxy]-2-methylphenyl}-N′-(4-nitrobenzoyl)thiourea] | 15% | 10% |  |
